Tests used:
[1] = system: T cell clones that are not CD1d-restricted; assay: Flow cytometric staining with lipid treated multimerized CD1d-Fc aggregates; format: cell-based, human; conditions: flow cytometry; 4 T cell clones that are not CD1d-restricted
Experimental: To facilitate binding to CD1 specific T cells for detection by flow cytometry, a highly multimerized form of the CD1d fusion protein was formed using fluorescently labeled protein A molecules. Protein A molecules spontaneously associate in solution at neutral pH with immunoglobulin Fc regions, forming complexes containing four Fc molecules and two protein A molecules (4+2 complexes, reference 2). The human CD1d-Fc fusion protein was incubated with Alexa 488 dye labeled protein A, and the 4+2 complexes purified by size exclusion chromatography on a Pharmacia Superose 6 column using PBS pH 7.2 as a running buffer. The purified 4+2 aggregates were concentrated to 100 μg/ml with ovalbumin as a carrier protein. The CD1d-Fc aggregate was then pre-incubated for 24 to 48 hours at 37° C. with antigenic glycolipids dissolved in DMSO at a 40:1 molar ratio of lipid to fusion protein, or with an equivalent volume of DMSO alone as a negative control. The T cell staining was performed at room temperature or 4° C. for 20 min, at a concentration of 40 μg/ml of the lipid or control treated CD1d-Fc aggregate.
To facilitate binding to CD1 specific T cells for detection by flow cytometry, a highly multimerized form of the CD1d fusion protein is formed using fluorescently labeled protein A molecules. […]

[2] = system: T cell lines and clones isolated from peripheral blood; assay: Functional analysis (cytokine secretion) of T cell lines and clones sorted with α-GalCer treated CD1d-Fc; format: cell-based, human; conditions: in the presence of antigen
Description: T cell lines and clones stained with the α-GalCer treated CD1d-Fc aggregates were isolated from peripheral blood by flow cytometric cell sorting and limiting dilution cloning, and cultured using standard techniques. […] Cytokine secretion was enhanced in the presence of α-GalCer.

[3] = system: α-GalCer reactive NKT cell hybridomas; assay: Plate-bound mCD1d fusion protein hybridoma stimulation assay, hybridoma panel; format: cell-based, mouse; conditions: some of the α-GalCer reactive NKT cell hybridomas
Description: Our observation that two NKT cell hybridomas, 24.8.A and 24.9.E, differed in their antigen reactivity, raised the possibility that NKT cells may have heterogeneous antigen specificities. To extend our analysis of NKT cells, and to compare antigen recognition by mCD1d-restricted T cells of the diverse TCR population, we tested 9 NKT and 8 diverse TCR mCD1d-restricted hybridomas for recognition of 14 purified and synthetic lipid antigens (see Tables 1 and 2). None of the hybridomas produced detectable IL-2 in response to a negative control protein, and only the 24.8.A hybridoma secreted detectable IL-2 in response to untreated mCD1d fusion protein (Table 2). Eight out of nine NKT cell hybridomas were potently stimulated by α-GalCer treated fusion protein, whereas none of the diverse TCR hybridomas reproducibly recognized this antigen (Table 2). […]
IL-2 secreted in the hybridoma stimulation assays was quantitated in a double antibody sandwich ELISA, by comparison to a standard curve of purified murine IL-2 (Pharmingen, San Diego, Calif.). […] IL-2 was detected by addition of a biotinylated rat anti-mouse IL-2 antibody, followed by addition of a streptavidin-alkaline phophatase conjugate, and a chromogenic substrate. The pg/ml of IL-2 present in the hybridoma supernatants was quantitated by linear regression of the IL-2 standard curve.

| Compound | staining of non-CD1d-restricted T cell clones by lipid treated CD1d fusion protein [1] | cytokine secretion in response to CD1d-transfected antigen presenting cells [2] | activity relative to synthetic α-GalCer [3] |
| --- | --- | --- | --- |
| CCCCCCCCCCCCCCCCCCCCCCCCCC(=O)N[C@@H](CO[C@H]1O[C@H](CO)[C@H](O)[C@H](O)[C@H]1O)[C@H](O)[C@H](O)CCCCCCCCCCCCCC [α-GalCer, α-galactosylceramide] | no staining | enhanced |  |
| phosphatidylinositol [PI] |  |  | 10-20% |
